“Also recorded” adds a separate entry of the source. Read-outs that look alike come from different tables or passages of the source.
Legend:
[1] = test system: AIDS virus; conditions: background; cited from earlier work
[2] = test system: reverse transcriptase of AIDS virus; conditions: background; cited from earlier work
[3] = test system: spleen of a mouse (spleen cells); experiment: Mitogenic activities (3H-thymidine uptake, mouse spleen cells); format: cell-based
Procedure: A spleen of a mouse was aseptically taken out and dispersed in a culture medium to obtain a cell suspension containing 3×10^6 cells/ml. The cells were subdivided into wells of a 96 well-microplate so as to adjust the cell number in each well to 3×10^5. A culture medium and a sample were added to each well, followed by culturing for 3 days. On the third day, 0.5 μCi of ^3 H-thymidine was added to each well, and culturing was conducted for further 7 hours. Then, the cells were harvested and thoroughly washed, and the amount of ^3 H-thymidine taken into the cells was measured by a liquid scintillation counter.

[4] = test system: Sarcoma 180 cells; experiment: Anti-tumor activities, Sarcoma 180 in mice; format: in vivo
Procedure: 2×10^6 Sarcoma 180 cells were transplanted subcutaneously into the groins of mice. Twenty four hours later, 0.05 ml of a 0.5% PBS solution of schizophyllan sulfate was administered to a rear femoral muscle. Thirty days later, the mice were killed and dissected, and tumors were taken out and weighed. The tumor inhibition rates were culculated by the following equation. [formula] where A and B denote the average tumor weights (g) of the control group and the treated group.
Each group consisted of 6 mice. To the control group, PBS was administered in the same amount as in the tested group.

[5] = test system: AIDS virus; experiment: Anti-AIDS virus activities (general statements, test not specified); set-up: species or system HIV (human immunodeficiency virus); conditions: general findings of the inventors
[6] = test system: AIDS virus (virus derived from Tall-1/HTLV-III) in Molt-4/cl. No. 8 cells; experiment: Anti-AIDS virus activities, reverse transcriptase activities (Molt-4/cl. No. 8 cells); format: cell-based, HIV (human immunodeficiency virus)
Procedure: Virus derived from Tall-1/HTLV-III were adsorbed on Molt-4/cl. No. 8 cells. Then, the cells were washed with a culture medium to remove virus not adsorbed on the cells. The cells thus obtained were subjected to the following test.
[…] Culturing was conducted for 8 days, and cytopathic effects (CPE) by virus were observed. Further, on the 8th day, the supernatant of the culture medium was sampled and subjected to the measurement of reverse transcriptase activities. The cells were subjected to an indirect immunofluorescence assay to detect the virus antigen.
The anti-AIDS virus activities were studied with respect to the sulfates of scleroglucan and pendulan thus obtained, in accordance with the method as used in Example 1(3).
Schizophyllans having different molecular weights were sulfated in accordance with method A in Example 1 (polysaccharide: 0.5 g; pyridine/sulfuric anhydride complex: 5 g; reaction time: 5 hours). The anti-AIDS virus activities were studied with respect to the polysaccharide sulfates thus obtained, in accordance with the method as described in Example 1(3). As the control, dextran sulfate was used.

[7] = test system: AIDS virus in human peripheral lymphocytes; experiment: Anti-AIDS virus activities in a human peripheral blood lymphocytes system, reverse transcriptase activities; format: cell-based, HIV (human immunodeficiency virus); conditions: Case 2, 100 μg/ml
Procedure: In the foregoing Examples, the anti-AIDS virus activities of schizophyllan sulfates were studied in a subcultured cell line. In this Example, a test was conducted for the effects of schizophyllan sulfates for suppressing proliferation of AIDS virus in a human peripheral lymphocytes system. Lymphocytes were separated from peripheral blood of an AIDS patient by Ficoll-Paque Separation, washed three times with a serum-free culture medium and suspended in a culture medium containing 10% of FCS. Adsorbable cells were removed, and suspended cells were collected and suspended in a culture medium. Then, PHA and IL-2 were added thereto. Healthy human lymphocytes were prepared 3 days ahead by the above-mentioned method. Into each well of a microplate having 24 wells, 10^6 /1 ml of patient's lymphocytes, a culture medium, 10^6 /1 ml of healthy human lymphocytes and a schizophyllan sulfate solution were introduced, mixed and cultured. On the seventh day and eleventh day after initiation of the culturing, the supernatant was sampled and subjected to the measurement of reverse transcriptase activities. Into each well, a sampled supernatant and the same amount of a culture medium were introduced and culturing was continued.

[8] = test system: AIDS virus in MT-4 cells; experiment: Anti-AIDS virus activities, reverse transcriptase activities (MT-4 cells); format: cell-based, HIV (human immunodeficiency virus); conditions: 10 days, virus (-) 2481, virus (+) 348764
Procedure: Further, anti-AIDS virus activities of schizophyllan sulfates were studied by using MT-4 cells. Cells were prepared in the same manner as in Example 1(3), and into each well, 1 ml of a cell suspension containing 14×10^4 cells/ml, 1 ml of a culture medium and a sample solution were added, followed by culturing for 10 days. The anti-AIDS virus activities of schizophyllan sulfates were studied by the observation of the cytopathic effects, by the measurement of reverse transcriptase activities and by the indirect immunofluorescence assay.

Cc1ccc(C(=O)Nc2ccc(S(=O)(=O)O)c3cc(S(=O)(=O)O)cc(S(=O)(=O)O)c23)cc1NC(=O)c1cccc(NC(=O)Nc2cccc(C(=O)Nc3cc(C(=O)Nc4ccc(S(=O)(=O)O)c5cc(S(=O)(=O)O)cc(S(=O)(=O)O)c45)ccc3C)c2)c1 [suramin]
anti-AIDS virus activities [1]: known to exibit anti-AIDS effects

chondroitin sulfate
inhibition of the reverse transcriptase of AIDS virus [2]: have similar physiological activities

NC(=O)c1ncn([C@@H]2O[C@H](CO)[C@@H](O)[C@H]2O)n1 [ribavirin]
anti-AIDS virus activities [1]: known to exibit anti-AIDS effects

k-carrageenan
inhibition of the reverse transcriptase of AIDS virus [2]: have similar physiological activities

Schizophyllan
mitogenic activities [3]: not observed | Mitogenic activities, Count (CPM), control ([3]; control substances, concentration not stated (printed under the 100 μg/ml column), Table 2): 1981 ± 184 CPM | Control rate (%) (tumor inhibition rate) ([4]; 0.05 ml of 0.5% PBS solution, rear femoral muscle, 30 days): 99.0% | Average weight (g) of tumor (wt ± S.E.) ([4]; 0.05 ml of 0.5% PBS solution, rear femoral muscle, 30 days, PBS control 4.07): 0.04 ± 0.016 g | anti-tumor activities ([4]; mouse, in vivo): having anti-tumor activities

lentinan sulfate
anti-AIDS virus activities [5]: have anti-AIDS virus activities

heparin
inhibition of the reverse transcriptase of AIDS virus [2]: have similar physiological activities

Dextran sulfate
Reverse transcriptase activities (CPM) ([6]; 100 μg/ml, Molt-4/cl. No. 8 cells, 8 days, Table 3, virus (-) 199, virus (+) 27557): 1947 ± 64 CPM | Reverse transcriptase activities (CPM) ([6]; 100 μg/ml, Table 8, virus (-) 621, virus (+) 51344): 1781 ± 169 CPM | Reverse transcriptase activities (CPM) ([6]; 100 μg/ml, Table 9, virus (-) 854, virus (+) 49291): 1738 ± 251 CPM | Reverse transcriptase activities (CPM) ([6]; 500 μg/ml, Molt-4/cl. No. 8 cells, 8 days, Table 3, virus (-) 199, virus (+) 27557): 703 ± 56 CPM | Reverse transcriptase activities (CPM) ([6]; 500 μg/ml, Table 8, virus (-) 621, virus (+) 51344): 923 ± 32 CPM | Reverse transcriptase activities (CPM) ([6]; 500 μg/ml, Table 9, virus (-) 854, virus (+) 49291): 923 ± 87 CPM | anti-AIDS virus activities [5]: stronger activities than the sulfates of e.g. mannan, pullulan and alginic acid; also recorded: have anti-AIDS virus activities | Reverse transcriptase activities (CPM) ([7]; 7th day, no addition 2872): 1789 ± 53 CPM | Reverse transcriptase activities (CPM) ([7]; 11th day, no addition 80436): 42792 ± 14582 CPM | Reverse transcriptase activities (CPM) ([7]; 18th day, no addition 67665): 280741 ± 31039 CPM | anti-AIDS virus activities [1]: have anti-AIDS virus activities | Reverse transcriptase activities (CPM) ([8]; 100 μg/ml): 22317 ± 4502 CPM | Reverse transcriptase activities (CPM) ([8]; 500 μg/ml): 18501 ± 2249 CPM

interferon
anti-AIDS virus activities [1]: known to exibit anti-AIDS effects

λ-carrageenan
inhibition of the reverse transcriptase of AIDS virus [2]: have similar physiological activities

dextran
anti-AIDS virus activities [1]: having no anti-AIDS virus activities

.iota.-carrageenan
inhibition of the reverse transcriptase of AIDS virus [2]: have similar physiological activities
